# Activity calls are given as the source filed them. The rule behind the calls is not given here.
# Assays:
# [1] = Cytotoxicity against mouse NIH/3T3 cells after 72 hrs by MTT assay; format: cell-based; conditions: NIH3T3, 72 h
# [2] = Cytotoxicity against human MES-SA cells after 72 hrs by MTT assay; format: functional, cell-based
# [3] = Cytotoxicity against human MDA-MB-435S cells after 72 hrs by MTT assay; format: functional, cell-based
# [4] = Cytotoxicity against mouse CCL8 cells after 72 hrs by MTT assay; format: functional, cell-based; conditions: CCL8, 72 h
# MCF7 = test: Cytotoxicity against human MCF7 cells after 72 hrs by MTT assay; format: functional, cell-based; conditions: MCF7, 72 h
# [5] = Acute toxicity in po dosed rat; format: organism-based; conditions: in vivo
# [6] = Cytotoxicity against human HT1080 cells after 72 hrs by MTT assay; format: functional, cell-based; conditions: HT-1080, 72 h
# MG-22A = test: Cytotoxicity against mouse MG-22A cells after 72 hrs by MTT assay; format: functional, cell-based
# 4T1 [7] = test: Antitumor activity against mouse 4T1 cells allografted in BALB/c mouse assessed as tumor growth inhibition at 1.8 mg/kg, ip administered 24 hrs post tumor implantation on even days of total 9 doses for 18 days relative to control; format: functional; conditions: 4T1, ip, route intraperitoneal, read-out: TGI
# CCRF S-180 = test: Antitumor activity against mouse S180 cells allografted in ICR mouse assessed as tumor growth inhibition at 15 mg/kg, ip qd administered 24 hrs post tumor implantation for 9 days measured after 9 days relative to control; format: functional, organism-based; design: dose 15 mg/kg
# 4T1 [8] = test: Antitumor activity against mouse 4T1 cells allografted in BALB/c mouse assessed as tumor growth inhibition at 15 mg/kg, ip administered 24 hrs post tumor implantation on even days of total 9 doses for 18 days measured after 18 days relative to control; format: functional
# Mus musculus = test: Toxicity in mouse 4T1 cells allografted BALB/c mouse assessed as body weight loss at 15 mg/kg, ip administered 24 hrs post tumor implantation on even days of total 9 doses for 18 days measured after 18 days relative to control; format: organism-based; design: dose 15 mg/kg, route intraperitoneal; conditions: in vivo, 432 h
Structure (SMILES),IC50 [1],IC50 [2],IC50 [3],IC50 [4],IC50 (MCF7),LD50 [5],IC50 [6],IC50 (MG-22A),inhibition in vivo at 1.8 mg/kg (4T1 [7]),TGI (CCRF S-180),TGI (4T1 [8]),Activity (Mus musculus),"inhibition in vivo at 15 mg/kg (4T1 [8]; 4T1, ip, route intraperitoneal, read-out: TGI)"
CN(C)CCOc1ccc(C(=O)c2c(-c3ccc(O)cc3)[se]c3cc(O)ccc23)cc1.Cl,20 µM,51 µM,26 µM,28 µM,22 µM,413 mg/kg,48 µM,9 µM,–,–,–,–,–
O=C(c1ccc(OCCN2CCCCC2)cc1)c1c(-c2ccc(O)cc2)sc2cc(O)ccc12 [RALOXIFENE],7.8 µM,37 µM,26 µM,27 µM,50 µM,255 mg/kg,34 µM,6.8 µM,70%,inactive,inactive,–,–
CNCCOc1ccc(C(=O)c2c(-c3ccc(O)cc3)[se]c3cc(O)ccc23)cc1.Cl,32 µM,42 µM,17 µM,46 µM,12 µM,452 mg/kg,6 µM,6 µM,–,–,–,–,–
Cl.O=C(c1ccc(OCCN2CCOCC2)cc1)c1c(-c2ccc(F)cc2)[se]c2cc(F)ccc12,363 µM,53 µM,168 µM,25 µM,121 µM,1410 mg/kg,27 µM,21 µM,–,–,–,–,–
Cl.O=C(c1ccc(OCCN2CCCCC2)cc1)c1c(-c2ccc(O)cc2)[se]c2cc(O)ccc12,22 µM,56 µM,3.6 µM,5.4 µM,35 µM,446 mg/kg,12 µM,5.4 µM,4%,inactive,–,Non-toxic,30%
O=[Se]([O-])[O-].[Na+].[Na+] [SODIUM SELENITE],23 µM,29 µM,12 µM,8 µM,17 µM,105 mg/kg,1.7 µM,64 µM,–,–,–,–,–
Cl.O=C(c1ccc(OCCN2CCCCC2)cc1)c1[se]c2cc(O)ccc2c1-c1ccc(O)cc1,28 µM,14.3 µM,32 µM,3.6 µM,25 µM,615 mg/kg,30 µM,3.6 µM,–,–,–,–,–
Cl.O=C(c1ccc(OCCN2CCOCC2)cc1)c1[se]c2cc(O)ccc2c1-c1ccc(O)cc1,16 µM,6.9 µM,15.5 µM,3.4 µM,31 µM,465 mg/kg,8.6 µM,5.2 µM,–,–,–,–,–
Cl.O=C(c1ccc(OCCN2CCOCC2)cc1)c1c(-c2ccc(O)cc2)[se]c2cc(O)ccc12,36 µM,61 µM,32 µM,9.8 µM,38 µM,553 mg/kg,46 µM,8 µM,–,–,–,–,–
CN(C)CCOc1ccc(C(=O)c2[se]c3cc(O)ccc3c2-c2ccc(O)cc2)cc1.Cl,31 µM,5.8 µM,3.8 µM,3.8 µM,17.3 µM,674 mg/kg,5.8 µM,3.9 µM,–,–,–,–,–
C[N+](C)(C)CCOc1ccc(C(=O)c2c(-c3ccc(O)cc3)[se]c3cc(O)ccc23)cc1.[Cl-],452 µM,–,–,–,–,1540 mg/kg,131 µM,124 µM,–,–,–,–,–
Cl.O=C(c1ccc(OCCN2CCCCCC2)cc1)c1c(-c2ccc(O)cc2)[se]c2cc(O)ccc12,14 µM,39 µM,14 µM,36 µM,40 µM,400 mg/kg,27 µM,5.2 µM,–,–,–,–,–
CCCCCCCCN(C)CCOc1ccc(C(=O)c2c(-c3ccc(O)cc3)[se]c3cc(O)ccc23)cc1.Cl,8 µM,4 µM,4 µM,4.7 µM,4.7 µM,308 mg/kg,4.7 µM,3.2 µM,–,–,–,–,–
Cl.O=C(c1ccc(OCCN2CCCC2)cc1)c1c(-c2ccc(O)cc2)[se]c2cc(O)ccc12,42 µM,32 µM,43 µM,34 µM,33 µM,543 mg/kg,36 µM,21 µM,–,–,–,–,–
CN(C)CCOc1ccc(C(=O)c2c(-c3ccc(F)cc3)[se]c3cc(F)ccc23)cc1.Cl,11 µM,3.8 µM,3.5 µM,3.8 µM,6.7 µM,313 mg/kg,4.8 µM,3.8 µM,–,–,–,–,–
Cl.O=C(c1ccc(OCCN2CCCCC2)cc1)c1c(-c2ccc(F)cc2)[se]c2cc(F)ccc12,9 µM,4.5 µM,3.6 µM,3.6 µM,11.6 µM,280 mg/kg,4.5 µM,4.5 µM,–,–,–,–,–
